{
  "source": "PubChem BioAssay (NCI)",
  "experiment_in_all_cases": "NCI-60 cell line screen, 48 h",
  "key": {"T-47D breast": {"test_system": "T-47D breast"}, "RPMI-8226 leukemia": {"test_system": "RPMI-8226 leukemia"}, "OVCAR-3 ovarian": {"test_system": "OVCAR-3 ovarian"}, "HOP-62 NSCLC": {"test_system": "HOP-62 NSCLC"}, "K-562 leukemia": {"test_system": "K-562 leukemia"}, "SW-620 colon": {"test_system": "SW-620 colon"}, "OVCAR-5 ovarian": {"test_system": "OVCAR-5 ovarian"}, "UO-31 renal": {"test_system": "UO-31 renal"}, "CAKI-1 renal": {"test_system": "CAKI-1 renal"}, "NCI-H226 lung": {"test_system": "NCI-H226 lung"}, "SF-295 CNS": {"test_system": "SF-295 CNS"}, "NCI-H522 lung": {"test_system": "NCI-H522 lung"}, "NCI/ADR-RES ovarian": {"test_system": "NCI/ADR-RES ovarian"}, "U251 CNS": {"test_system": "U251 CNS"}, "HL-60(TB) leukemia": {"test_system": "HL-60(TB) leukemia"}, "HS 578T breast": {"test_system": "HS 578T breast"}, "786-0 renal": {"test_system": "786-0 renal"}, "SN12C renal": {"test_system": "SN12C renal"}, "COLO 205 colon": {"test_system": "COLO 205 colon"}, "KM12 colon": {"test_system": "KM12 colon"}, "A498 renal": {"test_system": "A498 renal"}, "ACHN renal": {"test_system": "ACHN renal"}, "NCI-H23 lung": {"test_system": "NCI-H23 lung"}, "SK-MEL-2 melanoma": {"test_system": "SK-MEL-2 melanoma"}, "SK-OV-3 ovarian": {"test_system": "SK-OV-3 ovarian"}, "MDA-MB-435": {"test_system": "MDA-MB-435"}, "SR leukemia": {"test_system": "SR leukemia"}, "SNB-19 CNS": {"test_system": "SNB-19 CNS"}, "MDA-MB-231 breast": {"test_system": "MDA-MB-231 breast"}, "A549 NSCLC": {"test_system": "A549 NSCLC"}, "IGROV1 ovarian": {"test_system": "IGROV1 ovarian"}, "MDA-N": {"test_system": "MDA-N"}, "HCT-15 colon": {"test_system": "HCT-15 colon"}, "M14 melanoma": {"test_system": "M14 melanoma"}, "HOP-92 NSCLC": {"test_system": "HOP-92 NSCLC"}, "UACC-62 melanoma": {"test_system": "UACC-62 melanoma"}, "HCT-116 colon": {"test_system": "HCT-116 colon"}, "OVCAR-8 ovarian": {"test_system": "OVCAR-8 ovarian"}, "HT29 colon": {"test_system": "HT29 colon"}, "MCF7 breast": {"test_system": "MCF7 breast"}, "MOLT-4 leukemia": {"test_system": "MOLT-4 leukemia"}, "UACC-257 melanoma": {"test_system": "UACC-257 melanoma"}, "SF-268 CNS": {"test_system": "SF-268 CNS"}, "SF-539 CNS": {"test_system": "SF-539 CNS"}, "NCI-H460 lung": {"test_system": "NCI-H460 lung"}, "DU-145 prostate": {"test_system": "DU-145 prostate"}, "CCRF-CEM leukemia": {"test_system": "CCRF-CEM leukemia"}, "PC-3 prostate": {"test_system": "PC-3 prostate"}, "SK-MEL-5 melanoma": {"test_system": "SK-MEL-5 melanoma"}, "LOX IMVI melanoma": {"test_system": "LOX IMVI melanoma"}},
  "note": "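The compound was tested at five concentrations on cells cultured in 96-well plates, with a 48-hour exposure period. TGI: concentration producing complete growth inhibition.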",
  "data": [
    {"compound": "C[C@H]1C[C@H]2[C@@H]3C(C)(C)O[C@]4(O)C(=O)[C@]5(O)[C@@H](C)CC[C@H]1[C@]25C(=O)[C@]34C", "values": [
      {"measurement": "TGI", "setting": "T-47D breast", "result": 70.9, "unit": "µM"},
      {"measurement": "TGI", "setting": "RPMI-8226 leukemia", "result": 45.8, "unit": "µM"},
      {"measurement": "TGI", "setting": "OVCAR-3 ovarian", "result": 68.1, "unit": "µM"},
      {"measurement": "TGI", "setting": "HOP-62 NSCLC", "result": "> 100", "unit": "µM"},
      {"measurement": "TGI", "setting": "K-562 leukemia", "result": "> 100", "unit": "µM"},
      {"measurement": "TGI", "setting": "SW-620 colon", "result": "> 100", "unit": "µM"},
      {"measurement": "TGI", "setting": "OVCAR-5 ovarian", "result": "> 100", "unit": "µM"},
      {"measurement": "TGI", "setting": "UO-31 renal", "result": "> 100", "unit": "µM"},
      {"measurement": "TGI", "setting": "CAKI-1 renal", "result": "> 100", "unit": "µM"},
      {"measurement": "TGI", "setting": "NCI-H226 lung", "result": 98.2, "unit": "µM"},
      {"measurement": "TGI", "setting": "SF-295 CNS", "result": 77.5, "unit": "µM"},
      {"measurement": "TGI", "setting": "NCI-H522 lung", "result": 48, "unit": "µM"},
      {"measurement": "TGI", "setting": "NCI/ADR-RES ovarian", "result": "> 100", "unit": "µM"},
      {"measurement": "TGI", "setting": "U251 CNS", "result": "> 100", "unit": "µM"},
      {"measurement": "TGI", "setting": "HL-60(TB) leukemia", "result": 59.2, "unit": "µM"},
      {"measurement": "TGI", "setting": "HS 578T breast", "result": "> 100", "unit": "µM"},
      {"measurement": "TGI", "setting": "786-0 renal", "result": "> 100", "unit": "µM"},
      {"measurement": "TGI", "setting": "SN12C renal", "result": "> 100", "unit": "µM"},
      {"measurement": "TGI", "setting": "COLO 205 colon", "result": 38.6, "unit": "µM"},
      {"measurement": "TGI", "setting": "KM12 colon", "result": 99.7, "unit": "µM"},
      {"measurement": "TGI", "setting": "A498 renal", "result": 87, "unit": "µM"},
      {"measurement": "TGI", "setting": "ACHN renal", "result": 72.6, "unit": "µM"},
      {"measurement": "TGI", "setting": "NCI-H23 lung", "result": "> 100", "unit": "µM"},
      {"measurement": "TGI", "setting": "SK-MEL-2 melanoma", "result": 84.3, "unit": "µM"},
      {"measurement": "TGI", "setting": "SK-OV-3 ovarian", "result": "> 100", "unit": "µM"},
      {"measurement": "TGI", "setting": "MDA-MB-435", "result": 96.3, "unit": "µM"},
      {"measurement": "TGI", "setting": "SR leukemia", "result": 96.6, "unit": "µM"},
      {"measurement": "TGI", "setting": "SNB-19 CNS", "result": "> 100", "unit": "µM"},
      {"measurement": "TGI", "setting": "MDA-MB-231 breast", "result": "> 100", "unit": "µM"},
      {"measurement": "TGI", "setting": "A549 NSCLC", "result": "> 100", "unit": "µM"},
      {"measurement": "TGI", "setting": "IGROV1 ovarian", "result": "> 100", "unit": "µM"},
      {"measurement": "TGI", "setting": "MDA-N", "result": "> 100", "unit": "µM"},
      {"measurement": "TGI", "setting": "HCT-15 colon", "result": "> 100", "unit": "µM"},
      {"measurement": "TGI", "setting": "M14 melanoma", "result": "> 100", "unit": "µM"},
      {"measurement": "TGI", "setting": "HOP-92 NSCLC", "result": 62.7, "unit": "µM"},
      {"measurement": "TGI", "setting": "UACC-62 melanoma", "result": "> 100", "unit": "µM"},
      {"measurement": "TGI", "setting": "HCT-116 colon", "result": "> 100", "unit": "µM"},
      {"measurement": "TGI", "setting": "OVCAR-8 ovarian", "result": "> 100", "unit": "µM"},
      {"measurement": "TGI", "setting": "HT29 colon", "result": 70.3, "unit": "µM"},
      {"measurement": "TGI", "setting": "MCF7 breast", "result": "> 100", "unit": "µM"},
      {"measurement": "TGI", "setting": "MOLT-4 leukemia", "result": 80.7, "unit": "µM"},
      {"measurement": "TGI", "setting": "UACC-257 melanoma", "result": "> 100", "unit": "µM"},
      {"measurement": "TGI", "setting": "SF-268 CNS", "result": "> 100", "unit": "µM"},
      {"measurement": "TGI", "setting": "SF-539 CNS", "result": "> 100", "unit": "µM"},
      {"measurement": "TGI", "setting": "NCI-H460 lung", "result": "> 100", "unit": "µM"},
      {"measurement": "TGI", "setting": "DU-145 prostate", "result": "> 100", "unit": "µM"},
      {"measurement": "TGI", "setting": "CCRF-CEM leukemia", "result": "> 100", "unit": "µM"},
      {"measurement": "TGI", "setting": "PC-3 prostate", "result": "> 100", "unit": "µM"},
      {"measurement": "TGI", "setting": "SK-MEL-5 melanoma", "result": 81.7, "unit": "µM"},
      {"measurement": "TGI", "setting": "LOX IMVI melanoma", "result": "> 100", "unit": "µM"}
    ]}
  ]
}
